# Data taken from US20210196724A1, “BIARYL COMPOSITIONS AND METHODS FOR MODULATING A KINASE CASCADE” (Athenex, Inc., priority 2016, published 2021).
# pIC50: −log10 of the molar value. Where two headings read alike, the source gives them in different places.
# Assays:
# NCI-N87 cells = experiment: CellTiter-Glo cell viability, NCI-N87; format: cell-based; details: 72 h; for GI50: read-out: Absolute GI50; for pIC50: read-out: Absolute IC50
# Method: (§1) The cell viability of 50 cancer cell lines was studied after treatment with Compound 121. Inhibition concentration values at 50% (IC50) were determined using CellTiter-Glo luminescent cell viability assay after incubation with different compound concentrations. GI50 values were determined according to the examples described above. Each cell line was treated with Compound 121, a standard chemotherapy drug as a reference control, and culture medium as a vehicle control.
# (§2) All cells were cultured in media supplemented with 10-15% FBS at 37° C. in the presence of 5% CO2 and at 95% humidity. The culture medium was purchased from GIBCO or Sigma, USA. Cisplatin was chosen as the reference control and purchased from Hospira Australia Pty Ltd. The cell lines studied are presented in Table 5.
# (§3) Cells were harvested during a logarithmic growth period and cell number count was determined using Count-star. Cell concentrations were adjusted to 4.44×10^4 cells/mL with respective culture medium. 90 μL of cell suspensions were added to two 96-well plates (plates A and B) with a final cell density of 4×10^3 cells/well.
# (§4) 10 μL of culture medium was added to each well of plate A for TO reading. The plate was allowed to equilibrate at room temperature for approximately 30 min. 50 μL of CellTiter-Glo was added to each well and the contents were mixed for 5 min on an orbital shaker to induce cell lysis. The plate was allowed to incubate at room temperature for 20 min to stabilize luminescent signal.
# (§5) 10 μM Compound 121 in media was serially diluted 3.16-fold to achieve 9 dose levels. Similarly, 100 μM reference control in media was serially diluted 3.16-fold to prepare reference control solutions. 10 μL drug solution and 10 μL of reference control was dispensed into each well in plate B.
# (§6) Test plate B was incubated for 72 h in a humidified incubator at 37° C. in the presence of 5% CO2 and then subjected to CTG assay. The plate was allowed to equilibrate at room temperature for about 30 min. 50 μL of CellTiter-Glo was added to each well and the contents were mixed for 5 min on an orbital shaker to induce cell lysis. The plate was allowed to incubate at room temperature for 20 min to stabilize luminescent signal.
# (§7) IC50 and GI50 values for each of the 50 cell lines are presented in Table 6 and were calculated based on the dose-response curves depicted in FIGS. 1-50. The dose-response curves were fitted using nonlinear regression model with a sigmoidal dose response. The formula for calculating survival rate was calculated by the formula:
# (§8) Survival rate (%)=(LumTest article−LumMedium control)/(LumNone treated−LumMedium control)×100.
# FaDu cells = experiment: CellTiter-Glo cell viability, FaDu; format: cell-based; details: 72 h; for GI50: read-out: Absolute GI50; for pIC50: read-out: Absolute IC50
# Method: as §1, §2, §3, §4, §5, §6, §7, §8
# 22Rv1 cells = experiment: CellTiter-Glo cell viability, 22Rv1; format: cell-based; details: 72 h; for GI50: read-out: Absolute GI50; for pIC50: read-out: Absolute IC50
# Method: as §1, §2, §3, §4, §5, §6, §7, §8
# Raji cells = experiment: CellTiter-Glo cell viability, Raji; format: cell-based; details: 72 h; for GI50: read-out: Absolute GI50; for pIC50: read-out: Absolute IC50
# Method: as §1, §2, §3, §4, §5, §6, §7, §8
# KYSE-150 cells = experiment: CellTiter-Glo cell viability, KYSE-150; format: cell-based; details: 72 h; for GI50: read-out: Absolute GI50; for pIC50: read-out: Absolute IC50
# Method: as §1, §2, §3, §4, §5, §6, §7, §8
# MDA-MB-468 cells = experiment: CellTiter-Glo cell viability, MDA-MB-468; format: cell-based; details: 72 h; for GI50: read-out: Absolute GI50; for pIC50: read-out: Absolute IC50
# Method: as §1, §2, §3, §4, §5, §6, §7, §8
# EBC-1 cells = experiment: CellTiter-Glo cell viability, EBC-1; format: cell-based; details: 72 h; for GI50: read-out: Absolute GI50; for pIC50: read-out: Absolute IC50
# Method: as §1, §2, §3, §4, §5, §6, §7, §8
# MDA-MB-453 cells = experiment: CellTiter-Glo cell viability, MDA-MB-453; format: cell-based; details: 72 h; for GI50: read-out: Absolute GI50; for pIC50: read-out: Absolute IC50
# Method: as §1, §2, §3, §4, §5, §6, §7, §8
# [1] = test system: GL261 glioblastoma cells injected intra-cranially; experiment: GL261 murine model of glioblastoma (intra-cranial), survival; format: in vivo, C57BL/6 mice; details: orally once per day at 1 mg/kg for 45 days
# Method: The anti-tumor activity of Compound 121, as a single agent, was studied in the GL261 murine model of human glioblastoma. Murine GL261 glioblastoma cells were injected intra-cranially into syngeneic, immune-competent hosts (C57BL/6). In order for oral therapeutics to be effective, it is required that the therapeutic be able to cross the blood-brain barrier in order to achieve sufficient levels in the brain to exert an anti-tumor effect. Survival was the major endpoint for the study. The mice either succumbed to the tumor or were euthanized based on severity of tumor-dependent morbidity. Mice that achieved long-term survival (>80 days) were re-challenged with a sub-cutaneous injection of GL261 cells to assess the development of a durable immune response to GL261. Mice that underwent the re-challenge phase were not treated with Compound 121.
# GL261 cells (1×10^5 cells) were implanted into the brain of a C57BL/6 host using stereotactice injection. Compound 121 was dosed orally once per day at 1 mg/kg (N=10) for 45 days beginning 3 days post-tumor cell implantation. Compound Y was dosed orally once per day at 5 mg/kg (N=10) for 45 days beginning 3 days post-tumor implantation. A vehicle was administered to a control group of mice (N=10) per the same schedule.
# Mice were monitored for signs of tumor dependent morbidity, including head tilt, hunching, ataxia, and limb weakness. Mice were euthanized when cumulative signs of high tumor burden were evident.
# U87 cells = experiment: MTT cell growth inhibition (GI50), U87; format: cell-based, human; details: 3 days
# Method: The drug concentration required to block net cell growth by 50% relative to a control sample is measured as the GI50. The GI50s for several of the compounds of the application were assayed as described.
# MTT assay: U87 and GL261 cells were seeded in 96-well plate (6×10^3 cells in 100 μl of DMEM+10% FBS media per well) and incubated overnight at 37° C. with 5% CO2. All test compounds were diluted (10 point 2-fold serial dilution) in a separate 96-well plate to yield 10× of final concentrations (0.5-256 nM). A volume of 11 μl of 10× dilutions was added to appropriate wells (n=3). To value (reflecting the starting number of cells upon drug treatment) was determined by following steps as described below. After 3 days incubation at 37° C. with 5% CO2, 10 μl of MTT solution (5 mg/ml in PBS) was added to each well and plates were incubated at 37° C. for 3 h to allow MTT to form formazan crystals by reacting with metabolically active cells. 100 μl of 20% SDS was added to each well and plates were incubated overnight at 37° C. with 5% CO2. Afterward, OD570 was measured using microplate reader. The cell growth percentage of control was calculated according to percentage of control=(T−T0)/(C−T0)×100% or OD value of the test well exposure to test drug—OD value at time zero/(OD of the control well without drug treatment−OD value at time zero)×100%. Growth inhibition curves and GI50 were determined using GraphPad Prism 5 software.
# [2] = top conc. 10 μM Compound 121, 100 μM cisplatin
# [3] = Homo sapiens, top conc. 10 μM Compound 121, 100 μM cisplatin
structure (smiles),measurement,setting,value
"N.N.[Cl][Pt][Cl] [Cisplatin, reference compound]",GI50,NCI-N87 cells,880 nM
same,pIC50,NCI-N87 cells,5.65
same,% inhibition at top conc.,NCI-N87 cells; [2],90.08%
same,GI50,FaDu cells,1960 nM
same,pIC50,FaDu cells,5.65
same,% inhibition at top conc.,FaDu cells; [2],98.16%
same,GI50,22Rv1 cells,1880 nM
same,pIC50,22Rv1 cells,5.51
same,% inhibition at top conc.,22Rv1 cells; [2],98.28%
same,GI50,Raji cells,1740 nM
same,pIC50,Raji cells,5.71
same,% inhibition at top conc.,Raji cells; [2],94.98%
same,GI50,KYSE-150 cells,6260 nM
same,pIC50,KYSE-150 cells,5.09
same,% inhibition at top conc.,KYSE-150 cells; [2],91.28%
same,GI50,MDA-MB-468 cells,650 nM
same,pIC50,MDA-MB-468 cells,6.03
same,% inhibition at top conc.,MDA-MB-468 cells; [2],99.91%
same,GI50,EBC-1 cells,11800 nM
same,pIC50,EBC-1 cells,4.76
same,% inhibition at top conc.,EBC-1 cells; [2],84.49%
same,GI50,MDA-MB-453 cells,7050 nM
same,pIC50,MDA-MB-453 cells,5.02
same,% inhibition at top conc.,MDA-MB-453 cells; [2],96.82%
Cc1cc(N2CCOC[C@@H]2C)ccc1-c1ccc(CC(=O)NCc2ccc(F)cc2)nc1 [Compound 121],Survival compared to vehicle control,[1],significanly extended survival
same,Survival beyond 80 days (long term survival),[1]; N=10,2 of the 10
same,GI50,NCI-N87 cells; Homo sapiens,4 nM
same,pIC50,NCI-N87 cells; Homo sapiens,8.40
same,inhibition at 10 µM,NCI-N87 cells; [3],49.6%
same,GI50,FaDu cells; Homo sapiens,7 nM
same,pIC50,FaDu cells; Homo sapiens,8.10
same,inhibition at 10 µM,FaDu cells; [3],85.9%
same,GI50,22Rv1 cells; Homo sapiens,5 nM
same,pIC50,22Rv1 cells; Homo sapiens,8.22
same,inhibition at 10 µM,22Rv1 cells; [3],89%
same,GI50,Raji cells; Homo sapiens,5 nM
same,pIC50,Raji cells; Homo sapiens,8.30
same,inhibition at 10 µM,Raji cells; [3],94.2%
same,GI50,KYSE-150 cells; Homo sapiens,5 nM
same,pIC50,KYSE-150 cells; Homo sapiens,8.22
same,inhibition at 10 µM,KYSE-150 cells; [3],80%
same,GI50,MDA-MB-468 cells; Homo sapiens,7 nM
same,pIC50,MDA-MB-468 cells; Homo sapiens,8.05
same,inhibition at 10 µM,MDA-MB-468 cells; [3],80%
same,GI50,U87 cells,5.2 nM
same,GI50,EBC-1 cells; Homo sapiens,4 nM
same,pIC50,EBC-1 cells; Homo sapiens,8.40
same,inhibition at 10 µM,EBC-1 cells; [3],56.8%
same,GI50,MDA-MB-453 cells; Homo sapiens,4 nM
same,pIC50,MDA-MB-453 cells; Homo sapiens,8.40
same,inhibition at 10 µM,MDA-MB-453 cells; [3],67.5%
